Results on 21 compounds are retold here after ChEMBL document CHEMBL5104148, “Discovery of derivatives from Spartina alterniflora-sourced moiety as xanthine oxidase inhibitors to lower uric acid” (Bioorg Med Chem Lett, 2022).

A short description of series [1]: Cytotoxicity against human L02 cells assessed as reduction in cell viability incubated for 24 hrs by MTT assay. The format is toxicity, cell-based. On the technique in general: Tetrazolium dyes change colour on reduction, which living cells bring about.
Series [2] relates to Mus musculus. The series is described as follows: Anti-hyperuricemic activity against hypoxanthine and oteracil potassium induced hyperuricemia in Kunming mouse model assessed as creatinine level at 5 mg/kg, IG administered daily (reference value: 59.12 +/- 7.198 uM). The format is functional.
A short description of series [3]: Oral bioavailability in rat at 3 mg/kg measured after 24 hrs. Conditions: in vivo. The format is ADME, organism-based.
A short description of series [4]: AUC(0 to infinity) in rat at 1 mg/kg, iv measured after 24 hrs. The format is ADME, organism-based. Set-up: dose 1 mg/kg, time 24 hrs, route iv. Conditions: in vivo.
For series [5], the system named is Mus musculus. Description: Anti-hyperuricemic activity against hypoxanthine and oteracil potassium induced hyperuricemia in Kunming mouse model assessed as alanine aminotransferase level at 5 mg/kg, IG administered daily (reference value: 28.05 +/- 8.478 U/L). The format is functional.
A short description of series [6]: Cmax in rat at 1 mg/kg, iv measured after 24 hrs. Conditions: in vivo. More on the design: time 24 hrs, dose 1 mg/kg, route iv. The series is classed as ADME, organism-based.
Series [7] deals with Mus musculus. The series is described as follows: Anti-hyperuricemic activity against hypoxanthine and oteracil potassium induced hyperuricemia in Kunming mouse model assessed as total bilirubin level at 5 mg/kg, IG administered daily (reference value: 12.05 +/- 4.92 uM). The format is functional.
A short description of series [8]: AUC(0 to t) in rat at 3 mg/kg, po measured after 24 hrs. Set-up: dose 3 mg/kg, time 24 hrs, route po. The format is ADME, organism-based. Conditions: in vivo.
Series [9] deals with Mus musculus. The series is described as follows: Anti-hyperuricemic activity against hypoxanthine and oteracil potassium induced hyperuricemia in Kunming mouse model assessed as blood urea nitrogen level at 5 mg/kg, IG administered daily (reference value: 53.09 +/- 1.937 mg/dl). The series is classed as functional.
Series [10] can be described thus: Tmax in rat at 3 mg/kg, po measured after 24 hrs. The series is classed as ADME, organism-based. Conditions: in vivo.
Series [11] is described as follows: Volume of distribution in rat at 1 mg/kg, iv measured after 24 hrs. The format is ADME, organism-based. Conditions: in vivo.
Series [12] is described as follows: Tmax in rat at 1 mg/kg, iv measured after 24 hrs. The format is ADME, organism-based. Conditions: in vivo.
A short description of series [13]: Elimination half life in rat at 3 mg/kg, po measured after 24 hrs. The series is classed as ADME, organism-based. Conditions: in vivo, read-out: beta t1/2 (converted).
For series [14], the system named is Mus musculus. The series is described as follows: Anti-hyperuricemic activity against hypoxanthine and oteracil potassium induced hyperuricemia in Kunming mouse model assessed as uric acid level at 5 mg/kg, IG administered daily (reference value: 631.6 +/- 103.1 uM). The format is functional.
The nature of series [15]: AUC(0 to t) in rat at 1 mg/kg, iv measured after 24 hrs. The format is ADME, organism-based. Conditions: in vivo. Set-up: dose 1 mg/kg, time 24 hrs, route iv.
The nature of series [16]: Cmax in rat at 3 mg/kg, po measured after 24 hrs. The series is classed as ADME, organism-based. More on the design: time 24 hrs, dose 3 mg/kg, route po. Conditions: in vivo.
Series [17] can be described thus: Clearance in rat at 1 mg/kg, iv measured after 24 hrs. The series is classed as ADME, organism-based. Conditions: in vivo.
Series [18] is described as follows: Elimination half life in rat at 1 mg/kg, iv measured after 24 hrs. The format is ADME, organism-based. Conditions: in vivo, read-out: beta t1/2 (converted).
A short description of series [19]: AUC(0 to infinity) in rat at 3 mg/kg, po measured after 24 hrs. The format is ADME, organism-based. Set-up: dose 3 mg/kg, time 24 hrs, route po. Conditions: in vivo.
Series [20] concerns the target Xanthine dehydrogenase/oxidase (Homo sapiens, UniProt P47989). Description: Inhibition of xanthine oxidase (unknown origin) at 10 uM relative to control.

Sequence of Xanthine dehydrogenase/oxidase (P47989 whole entry): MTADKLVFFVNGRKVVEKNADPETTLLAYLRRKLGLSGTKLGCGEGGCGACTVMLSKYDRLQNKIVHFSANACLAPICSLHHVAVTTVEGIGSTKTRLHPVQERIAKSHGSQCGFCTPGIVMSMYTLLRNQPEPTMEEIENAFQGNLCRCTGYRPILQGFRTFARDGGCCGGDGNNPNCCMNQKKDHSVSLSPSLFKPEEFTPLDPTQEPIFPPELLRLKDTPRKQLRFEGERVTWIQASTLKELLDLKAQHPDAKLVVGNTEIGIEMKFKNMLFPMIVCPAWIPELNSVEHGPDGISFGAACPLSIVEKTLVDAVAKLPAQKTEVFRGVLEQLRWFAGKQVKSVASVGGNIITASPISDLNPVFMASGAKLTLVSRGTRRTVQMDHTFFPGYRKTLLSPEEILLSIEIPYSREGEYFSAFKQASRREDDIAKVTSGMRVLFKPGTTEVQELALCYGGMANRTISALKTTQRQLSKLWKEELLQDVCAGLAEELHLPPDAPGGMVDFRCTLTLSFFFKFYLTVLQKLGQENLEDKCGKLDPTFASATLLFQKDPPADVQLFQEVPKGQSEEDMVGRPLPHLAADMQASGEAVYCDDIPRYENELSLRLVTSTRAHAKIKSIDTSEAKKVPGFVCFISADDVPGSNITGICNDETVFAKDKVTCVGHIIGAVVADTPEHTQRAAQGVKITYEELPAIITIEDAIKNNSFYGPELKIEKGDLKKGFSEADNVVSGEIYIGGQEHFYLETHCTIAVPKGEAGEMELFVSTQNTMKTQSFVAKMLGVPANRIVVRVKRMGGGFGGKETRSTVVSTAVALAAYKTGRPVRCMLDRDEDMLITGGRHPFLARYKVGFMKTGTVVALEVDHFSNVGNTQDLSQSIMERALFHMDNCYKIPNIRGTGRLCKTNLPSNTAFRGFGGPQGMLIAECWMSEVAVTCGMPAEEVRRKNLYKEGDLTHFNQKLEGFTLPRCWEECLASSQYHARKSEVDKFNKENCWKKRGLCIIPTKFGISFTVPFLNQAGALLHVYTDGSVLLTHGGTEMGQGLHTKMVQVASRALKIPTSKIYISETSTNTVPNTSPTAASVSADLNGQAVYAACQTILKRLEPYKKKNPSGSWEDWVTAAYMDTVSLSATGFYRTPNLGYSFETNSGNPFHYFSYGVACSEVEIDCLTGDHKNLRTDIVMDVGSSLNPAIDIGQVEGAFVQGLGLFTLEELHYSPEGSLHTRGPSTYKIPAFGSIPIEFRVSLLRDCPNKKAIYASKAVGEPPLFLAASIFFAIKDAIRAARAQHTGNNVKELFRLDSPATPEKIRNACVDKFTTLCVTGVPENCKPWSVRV

In general, CC50 refers to the concentration giving 50% cytotoxicity. On to `CCCCS(=O)(=O)Oc1ccc(/C=C/C(=O)OCCC)cc1OC`, for which the CC50 at 24 h in [1] was found to be 61.8 µM.

As for `CCCCS(=O)(=O)Oc1ccc(/C=C/C(=O)Nc2ccccc2)cc1OC`, the CC50 at 24 h in series [1] was determined as 3.32 µM.

As to `CCCCS(=O)(=O)Oc1ccc(/C=C/C(=O)OC)cc1OC`, in [1], the CC50 at 24 h was determined as 208 µM.

Consider `COC(=O)/C=C/c1ccc(OS(=O)(=O)c2ccc(Cl)cc2)c(OC)c1`, for which, in series [1], the CC50 at 24 h worked out at 99.5 µM.

The bioavailability is dose-corrected exposure relative to a reference, in per cent. Read a high bioavailability as much systemic uptake. In general, AUC(0-inf) refers to total exposure, with the tail of the curve extrapolated. Lower therefore signals less exposure. What is called Cmax is the maximum level reached in the sampled fluid or tissue. The AUC(0-t) is the area under the concentration-time curve up to a stated or last time point. A lower AUC(0-t) goes with less exposure. One may read the Tmax as the time at which the peak concentration occurs. In general, Vd refers to the apparent volume that relates the amount in the body to the concentration in plasma or blood. Lower therefore signals confinement near the circulation. The term clearance denotes a measure of how efficiently the substance is removed, as volume per time. Read a low clearance as a low capacity for elimination. As to `CCCCS(=O)(=O)Oc1ccc(/C=C/C(=O)OCC)cc1OC`, the Activity in series [2] is 34.38 µM; in series [5] it was 29.23 U/L; in [7], 8.557 µM; in series [9] it was 30.48 mg/dL; in series [14], 295 µM. In addition, in [3], the bioavailability is 63.7%. Further, the figures for the AUC(0-inf) in series [4] and in series [19] were 851 ng·h/mL and 1640 ng·h/mL, respectively. Moreover, the values for the Cmax in series [6] and in series [16] were 1930 ng/mL and 1030 ng/mL, respectively. For the same compound, the AUC(0-t) at 24 h in series [8] was found to be 1620 ng·h/mL; in series [15], 847 ng·h/mL. Moreover, the Tmax in series [10] turned out to be 8.34 min; in series [12], 6 min. Moreover, the CC50 at 24 h in [1] came to 14.4 µM. Also, the distribution volume (Vd) in series [11] turned out to be 0.996 L/kg. The half-life in [13] was 79.2 min; in [18] it was 34.2 min. This compound had a clearance in series [17] of 19.8 mL/min/kg.

With `CCCCS(=O)(=O)Oc1ccc(/C=C/C(=O)Nc2ccc(CC)cc2)cc1OC`, in series [1], the CC50 at 24 h came out at 89 µM.

Take `CCCCS(=O)(=O)Oc1ccc(/C=C/C(=O)Nc2ccccc2I)cc1OC`: the CC50 at 24 h in [1] is 24.5 µM.

With `CCCCOC(=O)/C=C/c1ccc(OS(=O)(=O)CCCC)c(OC)c1`, the CC50 at 24 h in series [1] came to 115 µM.

Regarding `CCCCS(=O)(=O)Oc1ccc(/C=C/C(=O)OCC(C)C)cc1OC`, the CC50 at 24 h in [1] worked out at 63.8 µM.

As to `CCCCS(=O)(=O)Oc1ccc(/C=C/C(=O)Nc2ccccc2C)cc1OC`, the CC50 at 24 h in series [1] came to 56.1 µM.

As to `CCCCS(=O)(=O)Oc1ccc(/C=C/C(=O)Nc2ccccc2Br)cc1OC`, the CC50 at 24 h in [1] stood at 5 µM.

Consider `CCCCS(=O)(=O)Oc1ccc(/C=C/C(=O)Nc2ccc(C)cc2)cc1OC`, for which the half-maximal cytotoxic concentration (CC50) at 24 h in series [1] was found to be 26.8 µM.

As for `COc1cc(/C=C/C(=O)OCC(C)C)ccc1OS(=O)(=O)c1ccc(Cl)cc1`, in series [1], the CC50 at 24 h was determined as 102 µM.

`COc1cc(/C=C/C(=O)Nc2ccc(I)cc2)ccc1OS(=O)(=O)c1ccc(Cl)cc1`: in series [1], the CC50 at 24 h was determined as 39.4 µM.

`CCCOC(=O)/C=C/c1ccc(OS(=O)(=O)c2ccc(Cl)cc2)c(OC)c1`: in [1], the CC50 at 24 h amounted to 150 µM.

In the case of `CCOC(=O)/C=C/c1ccc(OS(=O)(=O)c2ccc(Cl)cc2)c(OC)c1`, in series [1], the CC50 at 24 h worked out at 137 µM.

One may read the inhibition as the percentage by which the read-out fell short of the control. The low end stands for a response near the control, the high end for a response far below the control. With `Oc1ncnc2[nH]ncc12` [ALLOPURINOL], the Activity in [2] was determined as 71.97 µM; in [5], 32.11 U/L; in series [7], 10.36 µM; in [9], 43.64 mg/dL; in series [14], 309.2 µM. In addition, the CC50 at 24 h in series [1] worked out at 6.84 µM. In addition, in [20], the inhibition at 10 µM was determined as 45.6%.

With `COc1cc(/C=C/C(=O)Nc2cccc(C)c2)ccc1OS(=O)(=O)c1ccc(Cl)cc1`, the Activity in [2] was found to be 45.88 µM; in series [5] it was 25.21 U/L; in series [7] it was 8.296 µM; in series [9], 33.45 mg/dL; in series [14] it was 552.9 µM. In series [1], the CC50 at 24 h stood at 73.5 µM.

Turning to `CCCCOC(=O)/C=C/c1ccc(OS(=O)(=O)c2ccc(Cl)cc2)c(OC)c1`, in [1], the CC50 at 24 h was determined as 14 µM.

`CCCCS(=O)(=O)Oc1ccc(/C=C/C(=O)Nc2cccc(C)c2)cc1OC`: the CC50 at 24 h in series [1] turned out to be 33.6 µM.

Take `CCCCS(=O)(=O)Oc1ccc(/C=C/C(=O)Nc2ccc(Cl)cc2)cc1OC`: in [1], the CC50 at 24 h came to 81.2 µM.
